# Key:
# [1] = In vivo acute toxicity against Escherichia coli (KC-14) was determined for the compound administered intravenously; type: organism-based; settings: mouse, iv
# [2] = In vivo acute toxicity against Escherichia coli (KC-14) was determined for the compound administered perorally; type: organism-based; settings: mouse, po
# Salmonella paratyphi [3] = assay: In vitro antibacterial activity against Salmonella paratyphi 1015; type: functional, Salmonella enterica subsp. enterica serovar Paratyphi A; settings: Salmonella enterica
# Escherichia coli = assay: In vitro antibacterial activity against Escherichia coli NIHJ JC-2; type: functional
# Pseudomonas aeruginosa = assay: In vitro antibacterial activity against Pseudomonas aeruginosa IFO 3445; type: functional
# Klebsiella pneumoniae [4] = assay: In vitro antibacterial activity against Klebsiella pneumoniae PCI-602; type: functional
# [5] = test system: Staphylococcus epidermidis; assay: In vitro antibacterial activity against Staphylococcus epidermidis IAM 1576; type: functional
# Proteus vulgaris = assay: In vitro antibacterial activity against Proteus vulgaris HX-19; type: functional
# Staphylococcus aureus = assay: In vitro antibacterial activity against Staphylococcus aureus FDA 209P JC-1; type: functional
# Bacillus subtilis = assay: In vitro antibacterial activity against Bacillus subtilis ATCC 6633; type: functional
# [6] = test system: Staphylococcus epidermidis; assay: microbe, parasite or virus in culture; type: functional
# Klebsiella pneumoniae [7] = assay: microbe, parasite or virus in culture; type: functional
# Salmonella paratyphi [8] = assay: microbe, parasite or virus in culture; type: functional, Salmonella enterica subsp. enterica serovar Paratyphi A; settings: Salmonella enterica
# [9] = Concentrations in serum after 60 minutes at 50 mg / kg oral administration; type: ADME, cell-free
# [10] = Concentrations in serum after 30 minutes at 50 mg / kg oral administration; type: ADME, cell-free
# [11] = Total serum concentrations at 0 to 4 hours interval was determined by 50 mg / kg oral administration; type: ADME, cell-free
# [12] = Concentrations in serum after 240 minutes at 50 mg / kg oral administration; type: ADME
# Mus musculus [13] = assay: In vivo antibacterial activity against Escherichia coli (KC-14) was determined for the compound administered perorally; Value ranges from 2.4-4.7; type: functional; settings: po
# [14] = In vivo acute toxicity against Escherichia coli (KC-14) was determined for the compound administered orally; type: organism-based; settings: mouse, po
# [15] = Concentrations in serum after 120 minutes at 50 mg / kg oral administration; type: ADME, cell-free
# Mus musculus [16] = assay: In vivo antibacterial activity against Escherichia coli (KC-14) was determined for the compound administered perorally; Value ranges from […]-[…]; type: functional; settings: po
# Mus musculus [17] = assay: In vivo antibacterial activity against Escherichia coli (KC-14) was determined for the compound administered perorally; Value ranges from 3.3-5.0; type: functional; settings: po
# Mus musculus [18] = assay: In vivo antibacterial activity against Escherichia coli (KC-14) was determined for the compound administered perorally; type: functional; settings: po
# Mus musculus [19] = assay: In vivo antibacterial activity against Escherichia coli (KC-14) was determined for the compound administered perorally; Value ranges from 4.8-9.4; type: functional; settings: po
Structure (SMILES),MIC (Escherichia coli),MIC (Pseudomonas aeruginosa),MIC (Proteus vulgaris),MIC (Staphylococcus aureus),MIC (Bacillus subtilis),MIC [6],MIC (Klebsiella pneumoniae [7]),MIC (Salmonella paratyphi [8]),further results
CCn1cc(C(=O)O)c(=O)c2cc(F)c(N3CCNCC3)c(F)c21,–,–,–,–,–,–,–,–,LD50 [1]: 193 mg/kg; LD50 [2]: 1070 mg/kg
CCn1cc(C(=O)O)c(=O)c2cc(F)c(-n3cnc(Br)c3)c(F)c21,1.56 µg/mL,25 µg/mL,0.2 µg/mL,0.78 µg/mL,0.2 µg/mL,–,–,–,MIC (Salmonella paratyphi [3]): 0.2 µg/mL; MIC (Klebsiella pneumoniae [4]): 0.2 µg/mL; MIC [5]: 6.25 µg/mL
CCn1cc(C(=O)O)c(=O)c2cc(F)c(-n3cccn3)cc21,12.5 µg/mL,25 µg/mL,0.39 µg/mL,6.25 µg/mL,0.78 µg/mL,25 µg/mL,0.78 µg/mL,0.39 µg/mL,–
CCn1cc(C(=O)O)c(=O)c2cc(F)c(-n3cnc(C=O)c3)c(F)c21,0.78 µg/mL,25 µg/mL,0.2 µg/mL,3.13 µg/mL,0.78 µg/mL,–,–,–,MIC (Salmonella paratyphi [3]): 0.2 µg/mL; MIC (Klebsiella pneumoniae [4]): 0.2 µg/mL; MIC [5]: 25 µg/mL
CCn1cc(C(=O)O)c(=O)c2cc(F)c(-n3cnc(/C=N/O)c3)c(F)c21,6.25 µg/mL,25 µg/mL,0.78 µg/mL,3.13 µg/mL,0.78 µg/mL,25 µg/mL,0.39 µg/mL,0.39 µg/mL,–
CCn1cc(C(=O)O)c(=O)c2cc(F)c(-n3ccnc3C)c(F)c21,3.13 µg/mL,25 µg/mL,0.2 µg/mL,6.25 µg/mL,0.78 µg/mL,25 µg/mL,0.39 µg/mL,0.39 µg/mL,–
CCn1cc(C(=O)O)c(=O)c2cc(F)c(-n3cnc([N+](=O)[O-])c3)c(F)c21,6.25 µg/mL,25 µg/mL,3.13 µg/mL,1.56 µg/mL,0.39 µg/mL,6.25 µg/mL,0.39 µg/mL,1.56 µg/mL,–
CCn1cc(C(=O)O)c(=O)c2cc(F)c(-n3cnc(C)c3)c(F)c21,–,–,–,–,–,–,–,–,concentration at 1 h [9]: 29400 ng/mL; concentration at 0.5 h [10]: 49200 ng/mL; Concentration in serum [11]: 67900 ng/mL; concentration at 4 h [12]: 6300 ng/mL; LD50 [1]: 593 mg/kg; ED50 (Mus musculus [13]): 3.3 mg/kg; LD50 [14]: 4000 mg/kg; concentration at 2 h [15]: 10000 ng/mL
CCn1cc(C(=O)O)c(=O)c2cc(F)c(-n3cnc(CN(C)C)c3)c(F)c21,25 µg/mL,25 µg/mL,6.25 µg/mL,6.25 µg/mL,6.25 µg/mL,25 µg/mL,3.13 µg/mL,6.25 µg/mL,–
CCn1cc(C(=O)O)c(=O)c2cc(F)c(-n3cnc(C(=O)OC)c3)c(F)c21,25 µg/mL,25 µg/mL,1.56 µg/mL,25 µg/mL,12.5 µg/mL,25 µg/mL,3.13 µg/mL,3.13 µg/mL,–
CCn1cc(C(=O)O)c(=O)c2cc(F)c(-n3ccnc3)c(SC)c21,6.25 µg/mL,25 µg/mL,0.39 µg/mL,3.13 µg/mL,0.39 µg/mL,12.5 µg/mL,0.39 µg/mL,0.39 µg/mL,–
CCn1cc(C(=O)O)c(=O)c2cc(F)c(-n3cccc3)c(F)c21,3.13 µg/mL,12.5 µg/mL,0.1 µg/mL,0.39 µg/mL,0.05 µg/mL,1.56 µg/mL,0.2 µg/mL,0.2 µg/mL,concentration at 1 h [9]: 7070 ng/mL; ED50 (Mus musculus [16]): 11.7 mg/kg; concentration at 0.5 h [10]: 10700 ng/mL; Concentration in serum [11]: 17200 ng/mL; concentration at 4 h [12]: 1650 ng/mL; concentration at 2 h [15]: 3230 ng/mL
CCn1cc(C(=O)O)c(=O)c2cc(F)c(-n3cnnc3)cc21,25 µg/mL,25 µg/mL,25 µg/mL,25 µg/mL,25 µg/mL,25 µg/mL,12.5 µg/mL,3.13 µg/mL,–
CCn1cc(C(=O)O)c(=O)c2cc(F)c(-n3cnc(C(=O)N(C)C)c3)c(F)c21,25 µg/mL,25 µg/mL,3.13 µg/mL,12.5 µg/mL,6.25 µg/mL,25 µg/mL,1.56 µg/mL,3.13 µg/mL,–
CCn1cc(C(=O)O)c(=O)c2cc(F)c(-n3cnc4ccccc43)c(F)c21,1.56 µg/mL,12.5 µg/mL,0.78 µg/mL,0.2 µg/mL,0.05 µg/mL,1.56 µg/mL,0.39 µg/mL,0.78 µg/mL,–
CCn1cc(C(=O)O)c(=O)c2cc(F)c(-n3ccnc3)c(OC)c21,1.56 µg/mL,25 µg/mL,0.1 µg/mL,0.39 µg/mL,0.1 µg/mL,1.56 µg/mL,0.1 µg/mL,0.1 µg/mL,–
CCn1cc(C(=O)O)c(=O)c2cc(F)c(-n3ccnc3)c(F)c21,–,–,–,–,–,–,–,–,concentration at 1 h [9]: 39300 ng/mL; concentration at 0.5 h [10]: 44800 ng/mL; Concentration in serum [11]: 64900 ng/mL; concentration at 4 h [12]: 1700 ng/mL; LD50 [1]: 773 mg/kg; LD50 [14]: 4000 mg/kg; concentration at 2 h [15]: 7600 ng/mL; ED50 (Mus musculus [17]): 4 mg/kg
CCn1cc(C(=O)O)c(=O)c2cc(F)c(-n3cnc(CO)c3)c(F)c21,6.25 µg/mL,25 µg/mL,0.78 µg/mL,25 µg/mL,6.25 µg/mL,25 µg/mL,0.78 µg/mL,0.39 µg/mL,–
CCn1cc(C(=O)O)c(=O)c2cc(F)c(-n3ccnc3)cc21,1.56 µg/mL,12.5 µg/mL,0.2 µg/mL,6.25 µg/mL,0.78 µg/mL,25 µg/mL,0.2 µg/mL,0.1 µg/mL,concentration at 1 h [9]: 2300 ng/mL; concentration at 0.5 h [10]: 4200 ng/mL; Concentration in serum [11]: 5500 ng/mL; ED50 (Mus musculus [18]): 50 mg/kg; concentration at 2 h [15]: 1100 ng/mL
CCn1cc(C(=O)O)c(=O)c2cc(F)c(-n3cnc4c3CCCC4)c(F)c21,12.5 µg/mL,25 µg/mL,3.13 µg/mL,1.56 µg/mL,0.39 µg/mL,6.25 µg/mL,1.56 µg/mL,6.25 µg/mL,–
CCn1cc(C(=O)O)c(=O)c2cc(F)c(-n3cccc3)cc21 [IRLOXACIN],3.13 µg/mL,12.5 µg/mL,0.1 µg/mL,0.39 µg/mL,0.05 µg/mL,1.56 µg/mL,0.2 µg/mL,0.1 µg/mL,concentration at 1 h [9]: 2200 ng/mL; concentration at 0.5 h [10]: 5530 ng/mL; Concentration in serum [11]: 6800 ng/mL; concentration at 4 h [12]: 550 ng/mL; ED50 (Mus musculus [18]): 50 mg/kg; concentration at 2 h [15]: 840 ng/mL
CCn1cc(C(=O)O)c(=O)c2cc(F)c(N3CCNCC3)cc21 [NORFLOXACIN],–,–,–,–,–,–,–,–,concentration at 1 h [9]: 690 ng/mL; concentration at 0.5 h [10]: 1050 ng/mL; Concentration in serum [11]: 2000 ng/mL; ED50 (Mus musculus [19]): 6.7 mg/kg; concentration at 4 h [12]: 360 ng/mL; LD50 [1]: 327 mg/kg; LD50 [14]: 4000 mg/kg; concentration at 2 h [15]: 400 ng/mL

# — ChEMBL document CHEMBL1123556, “Synthesis of antimicrobial agents. 1. Syntheses and antibacterial activities of 7-(azole substituted)quinolones” (J Med Chem, 1987)
